Assay results: patent US20080009418A1, “Selective Inhibitors” (Alchemia LTD., priority 2004, published 2008)

Experiments:
[1] = biological target: T1, Human neurokinin (NK1) (Homo sapiens, UniProt P25103); test: Radioligand binding, human neurokinin NK1 membranes, filtration, [125I]-Substance P; details: compound at 10 μM
T1 construct: purchased Perkin Elmer Biosignal
In short: (§1)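 Percent inhibition of radioligand binding measured on recombinant human membranes: NK1 with [125I]-Substance P, KOP with [3H]-Diprenorphine. Incubation 1 h at room temperature, then harvest onto 0.3% PEI-soaked filters, cold Tris-HCl pH 7.4 washes and scintillation counting; non-specific binding from reference ligand wells.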

[2] = biological target: T2, Human melanin-concentrating hormone (MCH1) (Homo sapiens, UniProt Q99705); test: Radioligand binding, human melanin-concentrating hormone MCH1 membranes, FlashPlate, [125I]-S36057; details: compound at 10 μM; for A6 radioligand binding, percentage inhibition: [125I]-S36057
T2 construct: purchased Perkin Elmer Biosignal
T2 sequence (Q99705 whole entry): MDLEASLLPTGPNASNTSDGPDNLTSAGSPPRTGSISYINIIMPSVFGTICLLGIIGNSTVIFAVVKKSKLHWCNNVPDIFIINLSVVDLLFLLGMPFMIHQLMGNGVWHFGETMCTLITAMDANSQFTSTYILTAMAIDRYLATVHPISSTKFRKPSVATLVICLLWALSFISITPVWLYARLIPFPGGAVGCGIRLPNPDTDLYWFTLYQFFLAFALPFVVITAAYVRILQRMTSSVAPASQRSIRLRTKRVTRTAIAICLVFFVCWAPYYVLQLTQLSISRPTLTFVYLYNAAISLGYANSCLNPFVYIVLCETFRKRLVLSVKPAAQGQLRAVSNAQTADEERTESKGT
In short: (§2)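 Cloned human receptor membranes were coated onto FlashPlate wells and incubated with radioligand and compound (added from a 0.5 mM DMSO daughter plate) for 1 hour at room temperature in the dark. Scintillation counting gave percent inhibition, with DMSO defining total and reference ligand defining non-specific binding.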

[3] = biological target: T3, Human neuropeptide Y (NPY-Y1) (Homo sapiens, UniProt P25929); test: Radioligand binding, human neuropeptide Y NPY-Y1 membranes, FlashPlate, [125I]-PYY; details: compound at 10 μM
T3 construct: purchased Perkin Elmer Biosignal
T3 sequence (P25929 1-384): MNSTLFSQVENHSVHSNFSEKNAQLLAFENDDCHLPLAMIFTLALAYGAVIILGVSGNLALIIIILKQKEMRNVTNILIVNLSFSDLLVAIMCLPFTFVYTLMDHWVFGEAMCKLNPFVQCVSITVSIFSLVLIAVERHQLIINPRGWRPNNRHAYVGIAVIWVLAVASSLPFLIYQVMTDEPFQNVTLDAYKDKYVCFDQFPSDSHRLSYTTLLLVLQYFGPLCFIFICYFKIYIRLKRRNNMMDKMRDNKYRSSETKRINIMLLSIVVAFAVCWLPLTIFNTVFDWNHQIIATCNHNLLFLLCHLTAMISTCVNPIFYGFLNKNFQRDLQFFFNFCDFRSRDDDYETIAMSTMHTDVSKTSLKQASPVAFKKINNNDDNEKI
In short: as §2

[4] = biological target: T4, Human δ-opioid (DOP) (Homo sapiens, UniProt P41143); test: Radioligand binding, human δ-opioid (DOP) membranes, FlashPlate, [3H]-Bremazocine; details: compound at 10 μM
T4 construct: purchased Perkin Elmer Biosignal
T4 sequence (P41143 whole entry): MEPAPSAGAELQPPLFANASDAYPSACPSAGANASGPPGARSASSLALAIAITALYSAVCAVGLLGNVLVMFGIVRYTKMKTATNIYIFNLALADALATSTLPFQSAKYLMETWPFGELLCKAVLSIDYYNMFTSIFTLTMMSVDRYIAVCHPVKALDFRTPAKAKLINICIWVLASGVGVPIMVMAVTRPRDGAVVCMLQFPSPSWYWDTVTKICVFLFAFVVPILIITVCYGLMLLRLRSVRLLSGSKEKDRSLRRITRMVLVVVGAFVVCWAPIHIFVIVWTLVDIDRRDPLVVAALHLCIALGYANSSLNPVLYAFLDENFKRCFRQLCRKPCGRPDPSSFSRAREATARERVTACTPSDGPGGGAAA
In short: as §2

[5] = biological target: T5, Mouse urotensin (mUR2) (Mus musculus, UniProt Q8VIH9); test: Radioligand binding, mouse urotensin mUR2 membranes, FlashPlate, [125I]-Urotensin II; details: compound at 10 μM
T5 construct: purchased Perkin Elmer Biosignal
T5 sequence (Q8VIH9 1-385): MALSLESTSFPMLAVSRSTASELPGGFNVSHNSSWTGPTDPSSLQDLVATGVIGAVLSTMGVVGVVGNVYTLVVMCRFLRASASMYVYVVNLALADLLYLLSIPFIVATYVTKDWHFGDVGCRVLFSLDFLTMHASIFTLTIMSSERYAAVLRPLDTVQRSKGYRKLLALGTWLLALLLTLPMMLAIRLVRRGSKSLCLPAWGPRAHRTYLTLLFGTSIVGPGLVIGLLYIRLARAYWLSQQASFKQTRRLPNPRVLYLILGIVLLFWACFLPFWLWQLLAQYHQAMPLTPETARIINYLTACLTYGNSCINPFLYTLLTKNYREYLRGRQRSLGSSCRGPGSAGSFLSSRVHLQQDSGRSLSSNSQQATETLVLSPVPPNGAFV
In short: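 Cloned mouse urotensin (mUR2) receptor membranes from Perkin Elmer Biosignal were immobilized in FlashPlate microplates using a proprietary coating. Each well got 19.5 μl buffer, then 0.5 μl of DMSO, reference ligand, or compound. Adding 5 μl of [125I]-Urotensin II, diluted to 5× final concentration in binding buffer, started binding. Plates were sealed with TopSeal-A and incubated 1 hour at room temperature in the dark. Wells were counted for 30 seconds each on a TopCount after a 60-second delay, and percentage inhibition was calculated.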

[6] = biological target: T6, Human opioid (ORL1) (Homo sapiens, UniProt P41146); test: Radioligand binding, human opioid ORL1 membranes, FlashPlate, [125I]-Nociceptin; details: compound at 10 μM
T6 construct: purchased Perkin Elmer Biosignal
T6 sequence (P41146 whole entry): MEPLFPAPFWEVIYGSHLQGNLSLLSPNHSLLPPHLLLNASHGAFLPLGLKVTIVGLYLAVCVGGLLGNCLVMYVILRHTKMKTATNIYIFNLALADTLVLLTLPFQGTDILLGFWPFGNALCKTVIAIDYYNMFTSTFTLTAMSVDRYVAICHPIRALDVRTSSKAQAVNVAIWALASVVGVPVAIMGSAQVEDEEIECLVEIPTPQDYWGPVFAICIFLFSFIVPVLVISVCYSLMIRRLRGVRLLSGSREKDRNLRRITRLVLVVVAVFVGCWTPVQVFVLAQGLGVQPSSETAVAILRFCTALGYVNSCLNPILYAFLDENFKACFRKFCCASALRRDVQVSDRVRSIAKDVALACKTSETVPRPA
In short: as §2

[7] = biological target: T7, Human Melanocortin (MC3) (Homo sapiens, UniProt P41968); test: Radioligand binding, human melanocortin MC3 membranes, FlashPlate, [125I]-NDP-αMSH; details: compound at 10 μM
T7 construct: purchased Perkin Elmer Biosignal
T7 sequence (P41968 whole entry): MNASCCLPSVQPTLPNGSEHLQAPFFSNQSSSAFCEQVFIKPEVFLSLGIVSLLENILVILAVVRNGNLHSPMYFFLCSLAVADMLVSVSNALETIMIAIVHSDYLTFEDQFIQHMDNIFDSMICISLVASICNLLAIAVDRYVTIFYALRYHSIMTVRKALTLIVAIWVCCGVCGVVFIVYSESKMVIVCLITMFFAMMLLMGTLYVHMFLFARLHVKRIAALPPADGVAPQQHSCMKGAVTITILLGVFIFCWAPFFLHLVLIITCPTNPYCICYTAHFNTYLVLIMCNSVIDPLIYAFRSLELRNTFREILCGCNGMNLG
In short: as §2

[8] = biological target: T8, Human melanocortin (MC5) (Homo sapiens, UniProt P33032); test: Radioligand binding, human melanocortin MC5 membranes, FlashPlate, [125I]-NDP-αMSH; details: compound at 10 μM
T8 construct: purchased Perkin Elmer Biosignal
T8 sequence (P33032 whole entry): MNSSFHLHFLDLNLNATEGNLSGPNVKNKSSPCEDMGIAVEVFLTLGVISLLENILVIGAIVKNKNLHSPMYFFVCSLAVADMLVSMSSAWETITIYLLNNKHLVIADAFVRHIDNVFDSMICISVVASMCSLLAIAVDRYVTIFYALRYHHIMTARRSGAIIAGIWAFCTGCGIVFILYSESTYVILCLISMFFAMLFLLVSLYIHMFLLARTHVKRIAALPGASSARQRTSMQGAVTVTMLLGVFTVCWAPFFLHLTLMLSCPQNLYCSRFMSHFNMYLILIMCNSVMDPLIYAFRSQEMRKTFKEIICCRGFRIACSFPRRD
In short: as §2

[9] = biological target: T9, Human Melanocortin (MC4) (Homo sapiens, UniProt P32245); test: Radioligand binding, human melanocortin MC4 membranes, FlashPlate, [125I]-NDP-αMSH; details: compound at 10 μM
T9 construct: purchased Perkin Elmer Biosignal
T9 sequence (P32245 whole entry): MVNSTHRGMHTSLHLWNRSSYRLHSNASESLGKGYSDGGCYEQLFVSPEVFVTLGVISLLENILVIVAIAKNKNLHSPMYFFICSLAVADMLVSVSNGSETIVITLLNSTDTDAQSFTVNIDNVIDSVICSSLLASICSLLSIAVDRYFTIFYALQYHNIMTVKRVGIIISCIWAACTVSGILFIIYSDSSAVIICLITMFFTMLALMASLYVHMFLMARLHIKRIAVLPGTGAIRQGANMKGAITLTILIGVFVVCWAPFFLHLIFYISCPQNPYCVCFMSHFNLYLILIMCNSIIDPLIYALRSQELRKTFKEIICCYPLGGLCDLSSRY
In short: as §2

[10] = biological target: T10, Human κ-Opioid (KOP) (Homo sapiens, UniProt P41145); test: Radioligand binding, human κ-opioid (KOP) membranes, filtration, [3H]-Diprenorphine; details: compound at 10 μM
T10 construct: purchased Perkin Elmer Biosignal
T10 sequence (P41145 whole entry): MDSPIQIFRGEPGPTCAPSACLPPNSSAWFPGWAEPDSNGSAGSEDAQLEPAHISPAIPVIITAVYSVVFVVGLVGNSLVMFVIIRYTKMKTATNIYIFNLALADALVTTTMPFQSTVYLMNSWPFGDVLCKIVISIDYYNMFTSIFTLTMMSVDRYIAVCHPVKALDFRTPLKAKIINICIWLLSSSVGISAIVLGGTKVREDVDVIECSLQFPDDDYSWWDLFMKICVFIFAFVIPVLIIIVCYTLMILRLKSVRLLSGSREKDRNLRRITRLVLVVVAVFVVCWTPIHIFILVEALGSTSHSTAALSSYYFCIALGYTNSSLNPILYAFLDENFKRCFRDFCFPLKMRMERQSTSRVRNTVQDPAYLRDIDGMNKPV
In short: as §1

[11] = biological target: T11, Human μ-opioid (MOP) (Homo sapiens, UniProt P35372); test: Radioligand binding, human μ-opioid (MOP) membranes, FlashPlate, [3H]-Naloxone; details: compound at 10 μM
T11 construct: purchased Perkin Elmer Biosignal
T11 sequence (P35372 whole entry): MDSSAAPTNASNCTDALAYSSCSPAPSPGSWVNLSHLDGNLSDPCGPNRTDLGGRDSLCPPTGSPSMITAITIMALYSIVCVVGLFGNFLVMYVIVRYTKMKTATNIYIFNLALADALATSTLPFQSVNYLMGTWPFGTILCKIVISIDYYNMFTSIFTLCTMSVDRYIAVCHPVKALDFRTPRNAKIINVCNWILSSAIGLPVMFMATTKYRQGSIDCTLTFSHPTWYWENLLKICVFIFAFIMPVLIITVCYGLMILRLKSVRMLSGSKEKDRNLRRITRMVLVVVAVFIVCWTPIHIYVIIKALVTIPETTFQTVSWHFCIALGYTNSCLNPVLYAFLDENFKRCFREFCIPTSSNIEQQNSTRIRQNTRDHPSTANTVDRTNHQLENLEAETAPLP
In short: as §2

T1 sequence (P25103 whole entry): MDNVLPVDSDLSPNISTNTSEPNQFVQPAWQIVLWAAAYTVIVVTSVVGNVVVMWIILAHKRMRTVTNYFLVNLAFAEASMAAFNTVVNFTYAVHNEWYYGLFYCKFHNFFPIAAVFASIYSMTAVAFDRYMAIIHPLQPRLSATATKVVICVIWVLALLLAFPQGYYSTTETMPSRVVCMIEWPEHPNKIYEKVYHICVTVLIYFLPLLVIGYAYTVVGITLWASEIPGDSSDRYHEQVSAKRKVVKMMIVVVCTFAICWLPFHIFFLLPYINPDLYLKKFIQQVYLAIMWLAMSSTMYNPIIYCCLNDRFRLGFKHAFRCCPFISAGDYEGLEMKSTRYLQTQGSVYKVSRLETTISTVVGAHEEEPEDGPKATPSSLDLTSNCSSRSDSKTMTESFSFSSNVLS

SMILES	A8 radioligand binding, percentage inhibition ([1]; [125I]-Substance P)	A6 radioligand binding, percentage inhibition [2]	A9 radioligand binding, percentage inhibition ([3]; [125I]-PYY)	A1 radioligand binding, percentage inhibition ([4]; [3H]-Bremazocine)	A11 radioligand binding, percentage inhibition ([5]; [125I]-Urotensin II)	A10 radioligand binding, percentage inhibition ([6]; [125I]-Nociceptin)	A3 radioligand binding, percentage inhibition ([7]; [125I]-NDP-αMSH)	A5 radioligand binding, percentage inhibition ([8]; [125I]-NDP-αMSH)	A4 radioligand binding, percentage inhibition ([9]; [125I]-NDP-αMSH)	A2 radioligand binding, percentage inhibition ([10]; [3H]-Diprenorphine)	A7 radioligand binding, percentage inhibition ([11]; [3H]-Naloxone)	further results
CO[C@H]1[C@H](O)[C@@H](COCc2ccc(Cl)cc2)OC(OCc2ccc3ccccc3c2)[C@@H]1NC(=O)CCCN (stereo partly shown) [compound 80]												A8 radioligand binding inhibition ([1]; human neurokinin NK1 membranes): + (“+” indicates greater than 50% inhibition at 10 μM); A6 radioligand binding inhibition ([2]; human MCH1 membranes): − (“−” indicates less than 50% inhibition at 10 μM); A9 radioligand binding inhibition ([3]; human NPY-Y1 membranes): − (“−” indicates less than 50% inhibition at 10 μM); A1 radioligand binding inhibition ([4]; human δ-opioid (DOP) membranes): − (“−” indicates less than 50% inhibition at 10 μM); A11 radioligand binding inhibition ([5]; mouse urotensin mUR2 membranes): − (“−” indicates less than 50% inhibition at 10 μM); A10 radioligand binding inhibition ([6]; human ORL1 membranes): − (“−” indicates less than 50% inhibition at 10 μM); A3 radioligand binding inhibition ([7]; human melanocortin MC3 membranes): − (“−” indicates less than 50% inhibition at 10 μM); A5 radioligand binding inhibition ([8]; human melanocortin MC5 membranes): + (“+” indicates greater than 50% inhibition at 10 μM); A4 radioligand binding inhibition ([9]; human melanocortin MC4 membranes): + (“+” indicates greater than 50% inhibition at 10 μM); A2 radioligand binding inhibition ([10]; human κ-opioid (KOP) membranes): − (“−” indicates less than 50% inhibition at 10 μM); A7 radioligand binding inhibition ([11]; human μ-opioid (MOP) membranes): − (“−” indicates less than 50% inhibition at 10 μM)
CO[C@H]1[C@H](O)[C@@H](COCc2cccc(O)c2)OC(OCCc2ccccc2)[C@@H]1NC(=O)CNC(=N)N (stereo partly shown) [compound 158]	+ (“+” indicates greater than 50% inhibition at 10 μM)	− (“−” indicates less than 50% inhibition at 10 μM)	− (“−” indicates less than 50% inhibition at 10 μM)	− (“−” indicates less than 50% inhibition at 10 μM)	− (“−” indicates less than 50% inhibition at 10 μM)	− (“−” indicates less than 50% inhibition at 10 μM)	− (“−” indicates less than 50% inhibition at 10 μM)	− (“−” indicates less than 50% inhibition at 10 μM)	− (“−” indicates less than 50% inhibition at 10 μM)	− (“−” indicates less than 50% inhibition at 10 μM)	− (“−” indicates less than 50% inhibition at 10 μM)	
CO[C@H]1[C@H](O)[C@@H](COCc2ccc3ccccc3c2)OC(OCc2cccc(O)c2)[C@@H]1NC(=O)CCNC(=N)N (stereo partly shown) [compound 166]	+ (“+” indicates greater than 50% inhibition at 10 μM)	− (“−” indicates less than 50% inhibition at 10 μM)	− (“−” indicates less than 50% inhibition at 10 μM)	− (“−” indicates less than 50% inhibition at 10 μM)	− (“−” indicates less than 50% inhibition at 10 μM)	− (“−” indicates less than 50% inhibition at 10 μM)	− (“−” indicates less than 50% inhibition at 10 μM)	+ (“+” indicates greater than 50% inhibition at 10 μM)	+ (“+” indicates greater than 50% inhibition at 10 μM)	− (“−” indicates less than 50% inhibition at 10 μM)	− (“−” indicates less than 50% inhibition at 10 μM)	
CO[C@H]1[C@H](O)[C@@H](COCc2ccc(-c3ccccc3)cc2)OC(OCCc2ccccc2)[C@@H]1NC(=O)CCCNC(=N)N (stereo partly shown) [compound 112]	+ (“+” indicates greater than 50% inhibition at 10 μM)	− (“−” indicates less than 50% inhibition at 10 μM)	− (“−” indicates less than 50% inhibition at 10 μM)	− (“−” indicates less than 50% inhibition at 10 μM)	− (“−” indicates less than 50% inhibition at 10 μM)	− (“−” indicates less than 50% inhibition at 10 μM)	+ (“+” indicates greater than 50% inhibition at 10 μM)	+ (“+” indicates greater than 50% inhibition at 10 μM)	+ (“+” indicates greater than 50% inhibition at 10 μM)	− (“−” indicates less than 50% inhibition at 10 μM)	− (“−” indicates less than 50% inhibition at 10 μM)	
N=C(N)NCC(=O)NC1C(OCc2ccc(-c3ccccc3)cc2)OC(COCc2ccccc2)C(O)C1OCc1ccc(-c2ccccc2)cc1 (stereo not shown) [compound 406]												A8: inhibition of radioligand binding ([1]; [125I]-Substance P, human NK1 membranes): + (“+” indicates greater than 50% inhibition at 10 μM); A6: inhibition of radioligand binding ([2]; [125I]-S36057, human MCH1 membranes): − (“−” indicates less than 50% inhibition at 10 μM); A9: inhibition of radioligand binding ([3]; [125I]-PYY, human NPY-Y1 membranes): − (“−” indicates less than 50% inhibition at 10 μM); A1: inhibition of radioligand binding ([4]; [3H]-Bremazocine, human DOP membranes): − (“−” indicates less than 50% inhibition at 10 μM); A11: inhibition of radioligand binding ([5]; [125I]-Urotensin II, mouse mUR2 membranes): − (“−” indicates less than 50% inhibition at 10 μM); A10: inhibition of radioligand binding ([6]; [125I]-Nociceptin, human ORL1 membranes): + (“+” indicates greater than 50% inhibition at 10 μM); A3: inhibition of radioligand binding ([7]; [125I]-NDP-αMSH, human MC3 membranes): + (“+” indicates greater than 50% inhibition at 10 μM); A5: inhibition of radioligand binding ([8]; [125I]-NDP-αMSH, human MC5 membranes): + (“+” indicates greater than 50% inhibition at 10 μM); A4: inhibition of radioligand binding ([9]; [125I]-NDP-αMSH, human MC4 membranes): + (“+” indicates greater than 50% inhibition at 10 μM); A2: inhibition of radioligand binding ([10]; [3H]-Diprenorphine, human KOP membranes): − (“−” indicates less than 50% inhibition at 10 μM); A7: inhibition of radioligand binding ([11]; [3H]-Naloxone, human MOP membranes): − (“−” indicates less than 50% inhibition at 10 μM)
